≈ marks a conversion by molar mass, not a printed value. Read-outs that look alike come from different tables or passages of the source.
Legend:
HCT116 cells = experiment: FACS analysis of cell cycle distribution; assay type: cell-based, human; details: HCT116, different concentrations, 6 h
Method: Many anticancer drugs induce apoptosis through programmed signaling in tumor cells. To test whether the newly developed 4-phenyl-N-(thieno[2,3-b]pyrazin-3-yl)piperazine-1-carboxamide derivatives could induce apoptosis, we conducted a FACS analysis of HCT116 cells with the representative compound 7c or DGG200064. Cell cycle distribution of HCT116 cells was investigated with different concentrations of DGG200064 for 6 h. […] Additionally, DGG200064 was tested for induced G2/M arrest in the other types of colon cancer cells in concentrations of 50 nM for 6 h (Figure 2b).
A colon cancer cells were trypsinized and fixed in 70% (vol/vol) ethanol for DNA staining. For cell cycle analysis, fixed cells were washed with PBS and subsequently resuspended in Propidium Iodide (PI)/RNase staining solution (0.05 mg/mL PI, 0.1 mg/mL RNase A in PBS). FACS analysis was performed using FACSCanto II (BD Biosciences, San Jose, CA, USA).

[1] = Pharmacokinetics in SD rats; assay type: in vivo; details: male, Sprague-Dawley, rat, plasma
Method: Sprague–Dawley rats (adult males, 250–300 g) were fasted overnight, and the femoral vein (for iv administration of the compound) and jugular vein (for blood sampling) of each rat were cannulated with polyethylene tubing. The selected compounds dissolved in 30% polyethylene glycol (PEG) in saline were administered either intravenously or orally. At various time points after administration, blood samples (0.5 mL) were collected from the jugular vein, transferred to heparin-coated tubes, centrifuged to separate off the plasma. The plasma was stored at −80 °C until assayed. Compound concentrations in plasma were determined by LC/MS/MS analysis (API4000 mass spectrometer, Applied Biosystem, Waltham, MA, USA). Pharmacokinetic parameters were analyzed using the WinNonlin software program. The area under the curve (AUC) was calculated using the trapezoidal rule extrapolated to infinity. The terminal elimination half-life, systemic clearance, and volume of distribution at steady state were determined. The extent of absolute oral bioavailability (F) was estimated by comparing the AUC values after intravenous and oral administration of the compounds.

[2] = system: HCT116 mouse tumor models; experiment: HCT116 xenograft mouse tumor model; assay type: in vivo, nude BALB/c mice; details: 6 days/week, 21 days
Method: We tested the inhibition effect by DGG200064 in the HCT116 mouse tumor models (Figure 6a). Cultured HCT116 cells were injected subcutaneously near the scapulae of 6-week-old female nude BALB/c mice. Oral administration of DGG200064 (60, 120 mg/kg) began when tumors reached a volume of 100 mm^3 and proceeded for 6 days/week. […] Mice were then injected intraperitoneally with BrdU and anesthetized 2 h later. They were then perfused with PBS and killed. To identify the level of c-Jun by DGG200064, HCT116 tumors harvested from mice were fixed and analyzed by immunohistochemical staining for Hematoxylin and c-Jun. […]
Xenografts were initiated in female Bagg and Albino (BALB)/c nude mice (6–8 weeks old; n = 18). […] The size of the primary tumors was measured every 2–3 days using calipers. Tumor volume was calculated using the formula, v = (A × B2)/2, where […] is the short diameter (mm). […]
The isolated tumors issued were then stained with antibodies against BrdU (1:700), c-Jun (1:50). […] Endogenous peroxidase activity was blocked with hydrogen peroxide, and background staining was blocked with V block solution, the primary antibodies were detected with horseradish […] (HRP)-conjugated polymer and developed with diaminobenzidine (DAB). […] Positively stained nuclei were counted, and the differences between the groups were analyzed using Student’s t-test, p values ≤0.05 were considered significant.

Solubility (logS) = assay type: physicochemical; details: for solubility: thermodynamic from solid, read-out: Solubility (logS) Equilibrium (converted)
Description: Table 4 Physicochemical Properties of the Lead Compounds 7c. | column: 7c

[3] = Maximum tolerated dose evaluation, 2 weeks; assay type: in vivo; details: 150 mg/kg oral administration, 2-week evaluation

## COc1cc(OC)cc(N2CCN(C(=O)Nc3nc4sccc4nc3OC)CC2)c1 [Compound 7c, 4-(3,5-Dimethoxyphenyl)-N-(2-methoxythieno[2,3-b]pyrazin-3-yl)piperazine-1-carboxamide]
HCT116 cells
  G2/M arrest: induced G/2M arrest in a dose-dependent manner
  apoptosis: did not cause apoptosis
[1]; SD rats, IV, 1 mg/kg
  AUC(0-inf): 708 ng·h/mL
  AUC(0-t): 703 ng·h/mL
  Cmax: 551 ng/mL
  Tmax: 0.083 h
  clearance: 25.2 mL/min/kg
  half-life: 1.11 h
[1]; SD rats, IV, 1 mg/kg, read-out: Vss
  Vd: 2.31 L/kg
[1]; SD rats, PO, 5 mg/kg
  AUC(0-inf): 964 ng·h/mL
  AUC(0-t): 707 ng·h/mL
  Cmax: 76 ng/mL
  Tmax: 4.05 h
  half-life: 7.5 h
[1]; SD rats, PO, 5 mg/kg, read-out: F
  bioavailability: 20.1%
[1]; no unit, species or route stated in b12 (7c value equals SD rats PO of Table 3)
  Cmax: 76 ng/mL
[1]; species and route not stated in b12 (7c value equals SD rats PO of Table 3), read-out: bioavailability (F)
  bioavailability: 20.1%
[2]; 60 mg/kg oral
  c-Jun expression increase in tumors compared to the control group (IHC): 1.2 fold
[2]; 120 mg/kg oral
  c-Jun expression increase in tumors compared to the control group (IHC): 2 fold
Solubility (logS); pH 2, aqueous buffer, pH2.0
  solubility: 2090 µM (≈ 897 µg/mL)
Solubility (logS); pH 7.4, aqueous buffer, kinetic from dmso stock, pH7.4
  solubility kinetic: 741 µM (≈ 318 µg/mL)
Solubility (logS); pH 7.4, aqueous buffer, pH7.4
  solubility: 603 µM (≈ 259 µg/mL)
Solubility (logS); pH 9, aqueous buffer, pH9.0
  solubility: 617 µM (≈ 265 µg/mL)
[3]
  body weight: no loss of body weight

Source: PMC9143821, “Design and Synthesis of a Novel 4-aryl-N-(2-alkoxythieno [2,3-b]pyrazine-3-yl)-4-arylpiperazine-1-carboxamide DGG200064 Showed Therapeutic Effect on Colon Cancer through G2/M Arrest” (Pharmaceuticals, 2022)
